Measurements as given in article PMC7224568 (PLoS Pathogens, 2020).
“Also recorded” adds a separate entry of the source.

Experiments:
soluble P14 TCR (mouse) [1] = assay: ITC
soluble P14 TCR (mouse) [2] = assay: SPR
TCR P14 = settings: cited from earlier work
H-2D^b (pMHC complex) = format: binding, mouse
soluble TCR P14 [3] = format: binding, mouse
P14 T cells [4] = format: cell-based, mouse
P14 T cells [5] = format: cell-based, mouse; remark: listed apart in the source
P14 T cells [6] = format: cell-based, mouse; remark: listed apart in the source
P14 T cells [7] = format: cell-based, mouse; remark: listed apart in the source
T cell clone YF.F3 = settings: cited from earlier work
P14 T cells [8] = format: cell-based, mouse; remark: listed apart in the source
soluble TCR P14 [9] = format: binding, mouse; remark: listed apart in the source

Substance	pMHC complex thermal stability (in words) (H-2D^b (pMHC complex))	Tm (50% protein denaturation), in Fig 1A (H-2D^b (pMHC complex); pH 7.5) [°C]	thermodynamics of P14 binding (in words) (soluble TCR P14 [3])	P14 TCR down-regulation / internalization (in words) (P14 T cells [4])	TNF and IFNγ production by P14 T cells (in words) (P14 T cells [5])	CD107a expression (degranulation) of P14 T cells (in words) (P14 T cells [6])	TNF and IFNγ production by LCMV-activated P14 T cells (in words) (P14 T cells [7])	other results
H-2D^b/gp33 (from UniProt P01887 21-119) (peptide-MHC)	–	–	–	–	–	–	–	Kd (soluble P14 TCR (mouse) [1]): 5.8 µM; dH (soluble P14 TCR (mouse) [1]): -10.2 kcal/mol; Kd (soluble P14 TCR (mouse) [2]): 8.6 µM
KAVANFATM [Peptide Y4A]	–	–	–	–	–	–	–	agonist class (in words) (TCR P14): semi-agonist
KAVYNFATM [gp33, reference compound]	equivalent thermal stability	53.7	entropically unfavorable	induced significant TCR down-regulation	induced significant production of TNF and IFNγ	induced significant production of TNF and IFNγ, as well as CD107a expression	produced TNF and IFNγ	IFNγ production by clone YF.F3 (in words) (T cell clone YF.F3): did not produce high amounts IFNγ against gp33; killing of peptide-presenting targets by clone YF.F3 (in words) (T cell clone YF.F3): killed efficiently targets presenting gp33
KAPFNFATM [Peptide V3P_Y4F]	–	–	–	–	–	–	produced TNF and IFNγ	tetramer recognition by LCMV-activated P14 T cells (in words) (P14 T cells [8]): a significant amount of the activated P14 T cells recognized the H-2D^b/V3P_Y4F complex
KAPYNFATM [Peptide V3P]	consistent increase in pMHC complex thermal stability	57.3	mainly enthalpy-driven with almost null contribution of entropy; also recorded: the energy required for P14 recognition of V3P is reduced compared to gp33; also recorded: reduced unfavorable entropic contribution	equaled or increased TCR internalization compared to gp33	induced significant production of TNF and IFNγ	induced significant production of TNF and IFNγ, as well as CD107a expression	–	Tm (temperature with 50% pMHC denaturation) (H-2D^b (pMHC complex); pH 7.5): 57.3±0.4 C; P14 TCR binding to pMHC (in words) (soluble TCR P14 [9]): significantly higher binding affinity of soluble P14 TCR to H-2D^b/V3P compared to H-2D^b/gp33; TΔS (soluble TCR P14 [3]; pH 7.4): -0.5 ± 0.3 kcal/mol; ΔH (soluble TCR P14 [3]; pH 7.4): -8.5 ± 0.5 kcal/mol
